Measured values: US9890111B2, “Crystal structure of bifunctional transglycosylase PBP1b from E. coli and inhibitors thereof” (Academia Sinica, priority 2008, dated 2018)
In brackets after ≈: the same amount, converted by molar mass.

Experiments:
E. coli PBP1b = E. coli PBP1b (Escherichia coli, UniProt P02919); test: Fluorescence anisotropy (FA) binding assay; settings: library screening
Experimental: Fluorescence anisotropy measurements were carried out in triplicates in the wells of 384-well or 1536-well plates using a fluorescence detector that is capable to measure fluorescence anisotropy or fluorescencepolarization. For examples, a laser fluorimetry equipped with a 488 nm laser (IsoCyte) from Blueshift Biotech, Inc., (Sunnyvale, Calif., USA) of aViewlux from Perkin Elmer has been used for the application. Various buffers, salts, pH values, and divalent cations (Ca^++, Mg^++, Co^++) were optimized for fluorescence anisotropy measurements. KD and KI determinations were carried out in 100 mM NaCl, 10 mM Tris, pH 8.0. Fluorescence anisotropy values (A) were calculated using the equation: A=(I∥−G*I^⊥)/(I∥+2G*I^⊥), where I∥ is the fluorescence intensity of emitted light parallel to excitation, I^⊥ is the fluorescence intensity of emitted light perpendicular to excitation, and G is the […] that corrects for instrument bias. The G factor is experimentally determined for each run using the probe-only well as the basal anisotropy.
A high-throughput FA assay for transglycosylase was performed as disclosed in co-pending U.S. application Ser. No. 12/354,717. Concentration-dependent changes in fluorescence anisotropy was observed when E. coli PBP1b bound to F-Moe. The maximum anisotropy value was 0.2. […]
KI and IC50 values were determined from competitive displacement assay. […]

[1] = tested on: Escherichia coli (ATCC 25922, EC); test: Minimal inhibitory concentration (MIC), EC; format: cell-based; settings: ATCC25922; Escherichia coli ATCC 25922; read-out: MIC EC
Experimental: (§1) The minimal inhibitory concentration (MIC) of tested compounds was determined following the NCCLS standard. The experiments were conducted in 96-well microtiter plates using two-fold dilutions in Muller-Hilton broth with (Streptococcus pneumonia) or without blood (Bacillus subtilis, Enterococcus faecalis, Staphylococcus aureus, Escherichia coli, MRSA, Actinetobacter baumannii, Pseudomonas aeruginosa, Stenotrophomonas maltophilia, and Mycobacterium smegmatis). Exponentially growing cells at 5×10^5 cells/ml were incubated with test compounds at various concentrations. After an 18 h to 24 h incubation at 37° C., MIC was determined as the minimal concentration of the compound that prevents bacterial growth.

[2] = tested on: methicillin-resistant Staphylococcus aureus (ATCC33592, MRSA); test: Minimal inhibitory concentration (MIC), MRSA; format: cell-based; settings: Staphylococcus aureus, methicillin-resistant Staphylococcus aureus ATCC33592; read-out: MIC MRSA
Experimental: as §1

[3] = target: T1, penicillin-binding protein 1b from E. coli (transglycosylase) (Escherichia coli, UniProt P02919); test: Lipid II polymerization / transglycosylase (TG) activity assay; format: biochemical
T1 construct: PBP1b[58-804] was amplified from E. coli genomic DNA and cloned into the expression vector pET15b; His6 (N, cleaved yes); made in house; host or cells: E. coli BL21(DE3)
T1 sequence (P02919 58-804): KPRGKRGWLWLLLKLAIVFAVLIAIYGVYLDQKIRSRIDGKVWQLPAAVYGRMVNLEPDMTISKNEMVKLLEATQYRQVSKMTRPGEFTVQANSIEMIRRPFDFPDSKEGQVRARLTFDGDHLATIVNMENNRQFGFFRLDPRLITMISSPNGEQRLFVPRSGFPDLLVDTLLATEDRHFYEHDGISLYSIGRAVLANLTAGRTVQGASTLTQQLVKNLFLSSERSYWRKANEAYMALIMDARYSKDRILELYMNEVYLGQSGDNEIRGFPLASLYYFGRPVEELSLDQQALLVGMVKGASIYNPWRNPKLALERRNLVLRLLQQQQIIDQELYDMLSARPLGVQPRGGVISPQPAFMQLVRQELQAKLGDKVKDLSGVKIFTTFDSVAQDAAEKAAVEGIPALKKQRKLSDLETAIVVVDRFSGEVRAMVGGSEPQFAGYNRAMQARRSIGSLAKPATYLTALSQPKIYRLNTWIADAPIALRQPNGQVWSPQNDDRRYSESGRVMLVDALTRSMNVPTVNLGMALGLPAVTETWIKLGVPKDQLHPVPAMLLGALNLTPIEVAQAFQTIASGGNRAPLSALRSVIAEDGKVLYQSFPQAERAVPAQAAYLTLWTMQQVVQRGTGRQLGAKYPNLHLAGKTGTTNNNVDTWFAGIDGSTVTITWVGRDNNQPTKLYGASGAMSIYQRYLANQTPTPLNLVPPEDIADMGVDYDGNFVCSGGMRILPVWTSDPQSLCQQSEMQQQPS
Experimental: Lipid II polymerization assays were carried out by incubating 100 μM fluorophore-labeled lipid II and penicillin-binding protein 1b from E. coli in tubes containing 10 ng/μL N-acetyl muramidase in 50 mM Tris.HCl (pH 8.0), 10 mM MgCl2, 0.1% Triton X-100, 10% DMSO, and 15% MeOH for 30 minutes (Van Nieuwenhze et al. J Am Chem Soc 2002, 124, 3656.). The fluorophore can be dansyl chloride, NBD, BODIPY, fluorescein. Reaction supernatants were then injected onto an anion-exchange HPLC column (SAX1, Supelco Co.) and eluted with a linear gradient of ammonium acetate (20 mM to 0.5 M) in methanol. The eluant was monitored for fluorescence with λex=466 nm and λem=535 nm.
Purified protein was concentrated in 20 mM Tris-HCl (pH 8.0), 300 mM NaCl, and 1 mM DDM. Instead of using Dansyl lipid II, 6-(N-(7-nitrobenz-2-oxa-1,3-diazol-4-yl)amino) hexanoyl (NBD)-labeled Lipid II was prepared as described (Taubes G (2008) Science 321:356-361; Payne D J (2008) Science 321:1644-1645) and used as a substrate to measure TG enzymatic activity, with approach similar to what has been described previously (Holtje J V (1998) Microbiol Mol Biol Rev 62:181-203). Assays were carried out by using the following condition: NBD-Lipid II, 20 nM protein, 50 mM Tris HCl (pH 8.0), 10 mMCaCl2, 0.085% decyl PEG (Anatrace), and 15% MeOH at 37° C. for 0, 1, 3, 5, 7, 9, 20, and 30 min. The concentration of NBD-Lipid II was varied from 1 to 100 μM to determine the rate of the TG activity. After the reaction, 200 μM moenomycin was added to stop the reaction, and 13 μM muramidase (Sigma-Aldrich) was added to digest the TG products to result in NBD-Lipid II without lipid tails. The fluorescent signal decrease of substrate and increase of NBD-Lipid II without lipid tails were detected by anion-exchange column SAX1 (Supelco) on HPLC (Hitachi). The elution procedures was a linear gradient of ammonium acetate (20 mM to 1 M) in MeOH monitored at λexcitation=466 nm and λemission=535 nm. The kinetic parameter was estimated by following the Michaelis-Menten equation. To investigate the importance of transmembrane (TM) helix, PBP1b and PBP1bΔTM (residues Met-1 to Leu-87 were removed) were extracted with the buffer containing 20 mM Tris-HCl (pH 8.0), 300 mM NaCl, and 13 mM FOS-CHOLINE-14 (Anatrace). The protein was purified by nickel chelation chromatography in the presence of 1 mM DDM. The activity assay was carried out by using the following condition: 12 μM NBD-Lipid II, 20 nM protein, 50 mM Tris-HCl (pH 8.0), 10 mM CaCl2, 0.085% decyl PEG, and 15% MeOH at 37° C. for time 0, 1, 3, 5, 7, 9, 20, and 30 min. The initial velocity was used to compare the activity of full-length PBP1b and PBP1bΔTM.

[4] = tested on: Mycobacterium smegmatis (ATCC11565, MS); test: Minimal inhibitory concentration (MIC), MS; format: cell-based; settings: Mycolicibacterium smegmatis, ATCC11565, Mycobacterium smegmatis ATCC11565; read-out: MIC MS
Experimental: as §1

[5] = tested on: Staphylococcus aureus (ATCC29213, SA); test: Minimal inhibitory concentration (MIC), SA; format: cell-based; settings: Staphylococcus aureus, ATCC29213, Staphylococcus aureus ATCC29213; read-out: MIC SA
Experimental: as §1

PBP = PBP (Escherichia coli, UniProt P02919); test: PBP binding affinity by SPR; settings: read-out: steady-state affinity (KD)
PBP, sequence (P02919 58-804): as above
Text: Candidate compounds to be tested were labeled with fluorescein (6-carboxyfluoresein N-hydroxysuccinimide ester) under basic conditions to prepare the fluorescent probe. One major concern about the fluorescent probe used in the FA assay is the probe itself; either the fluorophore or the structure modification, may interfere with the binding between the targeted protein and the small molecule. Therefore, the PBP binding affinities of Moe A and the fluorescent probe are compared using SPR.

E. coli PBP1b, sequence (P02919 whole entry): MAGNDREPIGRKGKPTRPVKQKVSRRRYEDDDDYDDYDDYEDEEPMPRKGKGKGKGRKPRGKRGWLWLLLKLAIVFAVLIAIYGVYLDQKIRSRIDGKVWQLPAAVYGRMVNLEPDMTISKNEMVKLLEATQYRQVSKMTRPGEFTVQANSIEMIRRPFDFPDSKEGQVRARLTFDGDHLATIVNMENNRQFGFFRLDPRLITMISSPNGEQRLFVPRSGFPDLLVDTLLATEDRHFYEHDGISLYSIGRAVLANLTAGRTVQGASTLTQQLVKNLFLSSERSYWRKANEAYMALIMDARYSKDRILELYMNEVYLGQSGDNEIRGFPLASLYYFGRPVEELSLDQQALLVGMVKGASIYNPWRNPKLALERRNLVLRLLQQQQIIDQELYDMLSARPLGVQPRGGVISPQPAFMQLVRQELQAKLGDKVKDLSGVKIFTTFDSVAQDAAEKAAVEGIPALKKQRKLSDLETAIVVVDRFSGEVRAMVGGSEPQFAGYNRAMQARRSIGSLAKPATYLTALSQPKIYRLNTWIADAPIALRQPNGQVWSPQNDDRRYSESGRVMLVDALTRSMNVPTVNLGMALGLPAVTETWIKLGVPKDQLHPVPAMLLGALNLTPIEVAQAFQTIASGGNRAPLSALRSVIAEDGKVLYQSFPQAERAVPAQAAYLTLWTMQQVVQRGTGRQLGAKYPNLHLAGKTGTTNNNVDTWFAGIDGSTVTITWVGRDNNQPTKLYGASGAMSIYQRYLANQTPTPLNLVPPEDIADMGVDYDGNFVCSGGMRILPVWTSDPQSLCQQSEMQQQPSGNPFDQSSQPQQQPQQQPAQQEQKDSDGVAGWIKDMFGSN

| SMILES | inhibition activity in fluorescence anisotropy (in words) (E. coli PBP1b) | MIC [1] | MIC [2] | IC50 [3] | transglycosylase inhibition activity (in words) [3] | TG Activity at various concentration of cmpd: 25 μM ([3]; 25 μM compound, TG activity remaining (0% = full inhibition)) | remaining activity at 50 µM ([3]; read-out: TG Activity at various concentration of cmpd: 50 μM) | remaining activity at 100 µM ([3]; read-out: TG Activity at various concentration of cmpd: 100 μM) | MIC [4] | MIC [5] | Kd (PBP) |
| --- | --- | --- | --- | --- | --- | --- | --- | --- | --- | --- | --- |
| O=C(Nc1cc(Cl)ccc1Oc1ccccc1)c1cc(Br)cc(Br)c1O [Compound 009] | showed inhibition activities | > 256 µg/mL | 0.25 µg/mL (≈ 0.502 µM) | 45 µM | showed inhibition activities | 100% | 20% | 0% | 0.25 µg/mL (≈ 0.502 µM) | 0.5 µg/mL (≈ 1 µM) | – |
| C=C(C/C=C(\C)CCC=C(C)C)CCC(C)(C)/C=C/CC/C(C)=C\CO[C@H](COP(=O)(O)O[C@H]1OC(C(N)=O)[C@@](C)(O)[C@H](OC(N)=O)C1O[C@@H]1OC(CO[C@@H]2OC(CO)[C@@H](O)[C@H](O)C2O)[C@@H](O[C@@H]2OC(C)[C@@H](O[C@@H]3OC(C(=O)NC4=C(O)CCC4=O)[C@H](O)[C@H](O)C3O)[C@H](O)C2NC(C)=O)[C@H](O)C1NC(C)=O)C(=O)O (some centres unmarked) [Moe A, Moenomycin A] | – | – | – | – | – | – | – | – | – | – | 0.44 µM |
